Molecules are shown by their SMILES.

From ChEMBL document CHEMBL5252623, “Discovery of 3-phenyl-1,2,4-oxadiazole derivatives as a new class of SARS-CoV-2 main protease inhibitors” (Bioorg Med Chem Lett, 2023) come the findings set out here.

In this assay the target is Replicase polyprotein 1ab (Severe acute respiratory syndrome coronavirus 2, UniProt P0DTD1). As to the kind of experiment: Inhibition of SARS-CoV-2 main protease expressed in Escherichia coli BL21 (DE3) using MDA-AVLQSGFR-Lys(Dnp)-Lys-NH2 as substrate incubated for 10 mins by FRET analysis.
`O=C(CCc1ccccc1)NCc1nc(-c2ccc(C(F)(F)F)cc2)no1` came in with an IC50 of 90.5 µM.
For `O=C(NCc1nc(-c2ccc(C(F)(F)F)cc2)no1)c1ccccc1` the value was 62 µM; for `CC1=C(c2ccccc2)C1C(=O)NC(Cc1cccc(F)c1)c1nc(-c2ccc(C(F)(F)F)cc2)no1` (stereo not given), 14.2 µM.
Regarding `CC1=C(c2ccccc2)C1C(=O)NCc1nc(-c2cccc(C(F)(F)F)c2)no1` (stereo not given), the IC50 was 14.3 µM.
`CC1=C(c2ccccc2)C1C(=O)NC(Cc1ccccc1F)c1nc(-c2ccc(C(F)(F)F)cc2)no1` (stereo not given) showed an IC50 of 7.48 µM.
For `O=C(/C=C/c1ccccc1)NCc1nc(-c2ccc(C(F)(F)F)cc2)no1` the value was 46.3 µM; for `CC1=C(c2ccccc2)C1C(=O)NC(CC1CCCCC1)c1nc(-c2ccc(C(F)(F)F)cc2)no1` (stereo not given), 19.4 µM.
For `O=C(/C=C/c1ccco1)NCc1nc(-c2ccc(C(F)(F)F)cc2)no1` the value was 60.5 µM; for `CC1=C(c2ccccc2)C1C(=O)NCc1nc(-c2ccccc2)no1` (stereo not given), 79.6 µM; for `CC1=C(c2ccccc2)C1C(=O)NC(Cc1ccc(F)cc1)c1nc(-c2ccc(C(F)(F)F)cc2)no1` (stereo not given), 16.5 µM.
For `CC1=C(c2ccccc2)C1C(=O)NCc1nc(-c2ccc(C(F)(F)F)cc2)no1` (stereo not given) the value was 6.71 µM; for `O=C(C#Cc1ccccc1)NCc1nc(-c2ccc(C(F)(F)F)cc2)no1`, 46.9 µM.
In turn, `C/C=C/C(=O)NCc1nc(-c2ccc(C(F)(F)F)cc2)no1` displayed an IC50 of 250 µM.
On to `CC1=C(c2ccccc2)C1C(=O)NCc1nc(-c2ccccc2C(F)(F)F)no1` (stereo not given), for which the IC50 turned out to be 66.9 µM.
The compound `O=C(/C=C/c1cccs1)NCc1nc(-c2ccc(C(F)(F)F)cc2)no1` registered an IC50 of 54.6 µM.
The compound `CC1=C(c2ccccc2)C1C(=O)NC(Cc1ccc2ccccc2c1)c1nc(-c2ccc(C(F)(F)F)cc2)no1` (stereo not given) gave an IC50 of 6.47 µM.
For `O=C(/C=C/c1ccccn1)NCc1nc(-c2ccc(C(F)(F)F)cc2)no1` the value was 102 µM.
For `CC1=C(c2ccccc2)C1C(=O)NC(CC1CC1)c1nc(-c2ccc(C(F)(F)F)cc2)no1` (stereo not given) the value was 76.8 µM; for `CC1=C(c2ccccc2)C1C(=O)NC(Cc1ccccc1)c1nc(-c2ccc(C(F)(F)F)cc2)no1` (stereo not given), 5.27 µM; for `CC1=C(c2ccccc2)C1C(=O)NC(Cc1cc2ccccc2[nH]1)c1nc(-c2ccc(C(F)(F)F)cc2)no1` (stereo not given), 14.7 µM.

In general, IC50 refers to the concentration at which inhibition is half-maximal. High values mean weaker potency, low ones greater potency.
